Results: patent US9656971B2, “COMT inhibitors” (Hoffmann-La Roche Inc., priority 2012, dated 2017)
pIC50: −log10 of the molar value. Structures can show the parent of a compound that is named as a salt.

What follows are compounds tested against T1, Rec. human COMT (Homo sapiens, UniProt P21964) (assay: COMT-Fluorescence Assay). Details: COMT-fluorescence assay, rec. human COMT 25 nM, 4-Nitrocatechol-Alexa488 200 nM, SAM 500 nM; read-out: IC50.
T1 sequence (P21964 1-271): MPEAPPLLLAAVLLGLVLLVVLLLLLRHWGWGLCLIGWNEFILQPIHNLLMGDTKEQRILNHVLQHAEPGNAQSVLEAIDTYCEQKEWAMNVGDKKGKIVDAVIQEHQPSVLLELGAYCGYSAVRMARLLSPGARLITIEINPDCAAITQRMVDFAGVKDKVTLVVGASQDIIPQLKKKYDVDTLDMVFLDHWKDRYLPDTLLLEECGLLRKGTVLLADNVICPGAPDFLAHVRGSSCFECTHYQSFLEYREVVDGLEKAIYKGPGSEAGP
Assay type: biochemical
Description: This intramolecular interaction is disturbed if the 4-Nitrocatechol is methylated. […] This increase of fluorescence intensity can be followed in a kinetic measurement. The slope in the linear range of the kinetic is calculated. An inhibitor compound decreases the slope.
Signal [rfu/min]=(rfu(end-point)−rfu(startpoint))/incubation_time_#2

Row | pIC50 | Compound
1 | 6.01 | CN(C)CCc1ccccc1-c1cc(O)c2nc[nH]c(=O)c2c1 [Example 234, 6-(2-(2-(Dimethylamino)ethyl)phenyl)-8-hydroxyquinazolin-4(3H)-one]
2 | 7.70 | Cc1cc(F)ccc1-c1cc(O)c2nc[nH]c(=O)c2c1 [Example 127, 6-(4-Fluoro-2-methylphenyl)-8-hydroxyquinazolin-4(3H)-one]
3 | 6.25 | O=c1[nH]cnc2c(O)cc(CCc3ccccc3)cc12 [Example 16, 8-Hydroxy-6-phenethylquinazolin-4(3H)-one]
4 | 8.00 | Cc1cc(C(=O)N2CCN(C)CC2)sc1-c1cc(O)c2nc[nH]c(=O)c2c1 [Example 103, 8-Hydroxy-6-[3-methyl-5-(4-methyl-piperazine-1-carbonyl)-thiophen-2-yl]-3H-quinazolin-4-one]
5 | 7.30 | O=c1[nH]cnc2c(O)cc(-c3ccccc3COCCN3CCCC3)cc12 [Example 239, 8-Hydroxy-6-[2-(2-pyrrolidin-1-yl-ethoxymethyl)-phenyl]-3H-quinazolin-4-one; compound with trifluoro-acetic acid]
6 | 7.15 | Cc1cc(-c2c(Br)cc(O)c3nc[nH]c(=O)c23)ccn1 [Example 105, 6-Bromo-8-hydroxy-5-(2-methylpyridin-4-yl)quinazolin-4(3H)-one]
7 | 5.83 | Cc1cccc(Cc2cc(O)c3nc[nH]c(=O)c3c2)c1 [Example 12, 8-Hydroxy-6-(3-methylbenzyl)quinazolin-4(3H)-one]
8 | 6.77 | O=C(NCC(F)(F)C(F)(F)F)c1cc(O)c2nc[nH]c(=O)c2c1 [Example 4, 8-Hydroxy-4-oxo-N-(2,2,3,3,3-pentafluoropropyl)-3,4-dihydroquinazoline-6-carboxamide]
9 | 7.40 | CSCc1ccccc1-c1cc(O)c2nc[nH]c(=O)c2c1 [Example 114]
10 | 7.70 | COCc1cc(C(=O)N(CCN(C(C)C)C(C)C)C(C)C)ccc1-c1cc(O)c2nc[nH]c(=O)c2c1 [Example 106, N-(2-(Diisopropylamino)ethyl)-4-(8-hydroxy-4-oxo-3,4-dihydroquinazolin-6-yl)-N-isopropyl-3-(methoxymethyl)benzamide 2,2,2-trifluoroacetate]
11 | 5.49 | Cc1c(Br)cc2c(=O)[nH]cnc2c1O [Example 136, 6-Bromo-8-hydroxy-7-methylquinazolin-4(3H)-one]
12 | 7.52 | CN(C)CCOCc1ccccc1-c1cc(O)c2nc[nH]c(=O)c2c1 [Example 241, 6-(2-((2-(Dimethylamino)ethoxy)methyl)phenyl)-8-hydroxyquinazolin-4(3H)-one]

Second part, the compound before the results:

Row | Compound | pIC50
13 | Cc1onc(-c2ccccc2)c1-c1cc(O)c2nc[nH]c(=O)c2c1 [Example 76, 8-Hydroxy-6-(5-methyl-3-phenylisoxazol-4-yl)quinazolin-4(3H)-one] | 5.34
14 | O=c1[nH]cnc2c(O)cc(-c3ccccc3OCc3ccccc3)cc12 [Example 227, 6-(2-(Benzyloxy)phenyl)-8-hydroxyquinazolin-4(3H)-one] | 7.30
15 | Cc1noc(C)c1-c1cc(O)c2nc[nH]c(=O)c2c1 [Example 78, 6-(3,5-Dimethylisoxazol-4-yl)-8-hydroxyquinazolin-4(3H)-one] | 6.49
16 | Cc1ncccc1-c1cc(O)c2nc[nH]c(=O)c2c1 [Example 138, 8-hydroxy-6-(2-methylpyridin-3-yl)quinazolin-4(3H)-one] | 7.70
17 | Cn1nc(C(F)(F)F)cc1-c1cc(O)c2nc[nH]c(=O)c2c1 [Example 154, 8-Hydroxy-6-(2-methyl-5-trifluoromethyl-2H-pyrazol-3-yl)-3H-quinazolin-4-one] | 7.70
18 | CS(=O)(=O)c1ccc(-c2c(-c3ccc(F)cc3)cc(O)c3nc[nH]c(=O)c23)cc1 [Example 57, 6-(4-Fluorophenyl)-8-hydroxy-5-(4-(methylsulfonyl)phenyl)quinazolin-4(3H)-one] | 8.00
19 | O=c1[nH]cnc2c(O)cc(-c3ccccc3Cc3ccccc3)cc12 [Example 98, 6-(2-Benzylphenyl)-8-hydroxyquinazolin-4(3H)-one] | 7.40
20 | Cc1ccc(-c2c(-c3ccc(F)cc3)cc(O)c3nc[nH]c(=O)c23)cc1 [Example 50, 6-(4-Fluorophenyl)-8-hydroxy-5-p-tolylquinazolin-4(3H)-one] | 8.00
21 | CC(=O)Nc1ccccc1-c1cc(O)c2nc[nH]c(=O)c2c1 [Example 159, N-(2-(8-Hydroxy-4-oxo-3,4-dihydroquinazolin-6-yl)phenyl)acetamide] | 6.26
22 | COCCn1nccc1-c1cc(O)c2nc[nH]c(=O)c2c1 [Example 45, 8-Hydroxy-6-(1-(2-methoxyethyl)-1H-pyrazol-5-yl)quinazolin-4(3H)-one] | 7.52
23 | O=c1[nH]cnc2c(O)cc(-c3ccc4c(c3)OCO4)cc12 [Example 177, 6-(Benzo[d][1,3]dioxol-5-yl)-8-hydroxyquinazolin-4(3H)-one] | 7.40
24 | O=C(c1ccncc1)c1cc(O)c2nc[nH]c(=O)c2c1 [Example 93, 8-Hydroxy-6-isonicotinoylquinazolin-4(3H)-one] | 6.80
25 | O=c1[nH]cnc2c(O)cc(-c3ccc(F)cc3)c(-c3ccncc3)c12 [Example 56, 6-(4-Fluorophenyl)-8-hydroxy-5-(pyridin-4-yl)quinazolin-4(3H)-one] | 8.00
26 | Cc1cn(C)c(-c2cc(O)c3nc[nH]c(=O)c3c2)n1 [Example 188, 6-(1,4-Dimethyl-1H-imidazol-2-yl)-8-hydroxyquinazolin-4(3H)-one] | 5.90
27 | O=c1[nH]cnc2c(O)cc(/C=C/c3ccccc3)cc12 [Example 20, (E)-8-Hydroxy-6-styrylquinazolin-4(3H)-one] | 7.05
28 | Cc1cc(-c2c(-c3ccc(F)cc3)cc(O)c3nc[nH]c(=O)c23)ccn1 [Example 58, 6-(4-Fluorophenyl)-8-hydroxy-5-(2-methylpyridin-4-yl)quinazolin-4(3H)-one] | 8.00
29 | COc1ccc(C)cc1-c1cc(O)c2nc[nH]c(=O)c2c1 [Example 36, 8-Hydroxy-6-(2-methoxy-5-methylphenyl)quinazolin-4(3H)-one] | 7.10
30 | O=c1[nH]cnc2c(O)cc(-c3ccc(F)cc3)c(Cl)c12 [Example 101, 5-Chloro-6-(4-fluorophenyl)-8-hydroxyquinazolin-4(3H)-one] | 8.00
31 | COc1cccc(Cc2cc(O)c3nc[nH]c(=O)c3c2)c1 [Example 15, 8-Hydroxy-6-(3-methoxybenzyl)quinazolin-4(3H)-one] | 5.92

Same assay, conditions: IC50, COMT-fluorescence assay, rec. human COMT 25 nM, 4-Nitrocatechol-Alexa488 200 nM, SAM 500 nM

Row | pIC50 | Compound
32 | 8.00 | CN1CCc2cc(-c3cc(O)c4nc[nH]c(=O)c4c3)ccc21 [Example 40, 8-Hydroxy-6-(1-methylindolin-5-yl)quinazolin-4(3H)-one 1:1 salt with trifluoroacetate]
33 | 7.70 | COCc1cccc(-c2cc(O)c3nc[nH]c(=O)c3c2)c1 [Example 71, 8-Hydroxy-6-(3-(methoxymethyl)phenyl)quinazolin-4(3H)-one]

More lines, now with the values behind:

Row | Compound | pIC50
34 | O=c1[nH]cnc2c(O)cc(-c3cccc(Cl)c3)cc12 [Example 149, 6-(3-Chloro-phenyl)-8-hydroxy-3H-quinazolin-4-one] | 8.00
35 | CS(=O)(=O)Cc1ccccc1-c1cc(O)c2nc[nH]c(=O)c2c1 [Example 115, 8-Hydroxy-6-(2-(methylsulfonylmethyl)phenyl)quinazolin-4(3H)-one 2,2,2-trifluoroacetate] | 7.30
36 | COc1ccc(-c2cc(O)c3nc[nH]c(=O)c3c2)cc1 [Example 135, 8-Hydroxy-6-(4-methoxy-phenyl)-3H-quinazolin-4-one] | 8.00
